According to PubChem BioAssay (NCI):
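The compound was tested at five concentrations on cells cultured in 96-well plates, with a 48-hour exposure period. Here, GI50 denotes the concentration required for 50% inhibition of growth. The concentration for full growth arrest is given as TGI.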

Columns and labels:
Assay in all cases: inhibition of tumour cell growth, NCI panel, 48 h
[1] = system: HS 578T breast
[2] = system: BT-549 breast
[3] = system: TK-10 renal
[4] = system: EKVX NSCLC
[5] = system: MOLT-4 leukemia
[6] = system: OVCAR-8 ovarian
[7] = system: NCI-H460 lung
[8] = system: MALME-3M melanoma
[9] = system: MDA-N

Row | Structure (SMILES) | TGI [1] [µM] | TGI [2] [µM] | TGI [3] [µM] | TGI [4] [µM] | TGI [5] [µM] | TGI [6] [µM] | TGI [7] [µM] | TGI [8] [µM] | GI50 [1] [µM] | GI50 [2] [µM] | GI50 [3] [µM] | GI50 [4] [µM] | GI50 [5] [µM] | GI50 [6] [µM] | GI50 [7] [µM] | GI50 [8] [µM] | TGI [9] [µM]
1 | COc1cc(C2C3=C(NC(=O)C2C#N)c2ccc4ccccc4c2OCC3)cc(OC)c1OC (stereo not drawn) | 68.1 | 42.9 | > 100 | > 100 | > 100 | > 100 | > 100 | 72.5 | – | – | – | – | – | – | – | – | –
2 | CC1CC(C)(C)CC(OCCN2CCCCC2)(c2ccccc2)C1 (stereo not drawn) | 32.4 | 27.8 | 26.7 | 19.5 | – | 30.3 | 17.5 | 23.4 | – | – | – | – | – | – | – | – | –
3 | Oc1ccccc1/C=N/c1nc(-c2ccccc2)cs1 | > 100 | > 100 | > 100 | > 100 | 74.7 | > 100 | > 100 | > 100 | 39 | 59.5 | 33 | > 100 | 25.4 | 42.9 | > 100 | 47.2 | –
4 | CCN(CCCl)c1cc(CN(C)C)cc(NC(=O)c2ccc(C(=O)Nc3cccc(N(CCCl)NN)c3)cc2)c1 | 0.0711 | – | 0.618 | – | 0.0285 | 0.942 | – | 0.0939 | – | – | – | – | – | – | – | – | 0.169
5 | CC(C)(C)[C@H]1NC(=O)CN1C(=O)OCc1ccccc1 | – | > 100 | > 100 | > 100 | > 100 | > 100 | > 100 | > 100 | – | – | – | – | – | – | – | – | –
6 | CCOC(=O)CSc1nc(-c2ccc(Cl)cc2)c(C#N)c(=O)[nH]1 | > 100 | > 100 | > 100 | > 100 | > 100 | > 100 | > 100 | – | – | – | – | – | – | – | – | – | –
7 | COc1ccc(C2CC(c3cccc(Nc4ccncc4)c3)=NN2c2ccccc2)cc1 (stereo not drawn) | 3.87 | 20.6 | 4.43 | 10.2 | 4.63 | 4.77 | 3.34 | 3.08 | 1.82 | 4.94 | 2.12 | 2.73 | 2.07 | 2.19 | 1.8 | 1.62 | –
8 | CN(C)c1ccc(/C=C2\N=C(c3ccccc3)N(c3nc4ccc(Sc5ccccc5)cc4[nH]3)C2=O)cc1 | > 100 | > 100 | 81.3 | > 100 | > 100 | > 100 | > 100 | > 100 | – | – | – | – | – | – | – | – | –
9 | Nc1c(-c2ccccc2)c2ccc([N+](=O)[O-])cc2c(=O)n1-c1cccc(C(=O)O)c1 | > 100 | > 100 | > 100 | > 100 | > 100 | > 100 | > 100 | – | – | – | – | – | – | – | – | – | > 100
10 | COc1cc2c(cc1OCCN1CCN(CCOc3cc4c(cc3OC)C(=O)N3CCC[C@H]3C=N4)CC1)N=C[C@@H]1CCCN1C2=O | > 100 | > 79.1 | 87.8 | > 100 | 6.78 | > 100 | > 100 | 38.4 | – | – | – | – | – | – | – | – | –
11 | CN(C)CCCNC(=O)N/N=C/c1ccccn1 | > 10 | – | > 10 | > 10 | > 10 | > 10 | > 10 | > 10 | – | – | – | – | – | – | – | – | > 10
12 | N#Cc1nc(-c2ccsc2)oc1N | > 100 | – | > 100 | > 100 | > 100 | > 100 | – | – | – | – | – | – | – | – | – | – | > 100
13 | C=C(C)C1CCC2(C)C1CCC1(C)C2CCC2C3(C)C4OC(OC4=O)C(C)(C)C3CCC21C (stereo not drawn) | > 100 | > 100 | > 100 | > 100 | > 100 | > 100 | > 100 | – | – | – | – | – | – | – | – | – | > 100
14 | CCOC(=O)CC1C(C(=O)OCC)=Cn2c([nH]c3cccc4cccc2c43)=C1C(=O)OCC (stereo not drawn) | – | > 100 | > 100 | > 100 | > 100 | > 100 | > 100 | – | – | – | – | – | – | – | – | – | > 100
15 | Cc1cc(C)n(C(=CC(=O)C(Cl)Cl)n2nc(C)cc2C)n1 | > 100 | 16.1 | 15.1 | – | 0.806 | 21.3 | 34.1 | 15.7 | – | – | – | – | – | – | – | – | –
16 | CC1(c2ccc(Cl)cc2)c2ccccc2C(=O)N1CCCN1C(=O)c2ccccc2C1=O (stereo not drawn) | > 100 | > 100 | > 100 | 7.25 | > 100 | > 100 | – | – | – | – | – | – | – | – | – | – | > 100
17 | Cc1cc(Br)c(O)c(-c2cscn2)c1 | 52.4 | 24 | 42 | 96.1 | – | 42.1 | 49.6 | 43.7 | – | – | – | – | – | – | – | – | –
18 | COc1cc(-c2cc(OC)c(OC)c3ccc(Br)cc23)c2cc(Br)ccc2c1OC | 94.4 | – | 52.7 | > 100 | > 100 | – | > 100 | 52.9 | – | – | – | – | – | – | – | – | 42.7
